# Measured values taken from PubChem BioAssay (NCI).
#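 Assay format: 96-well plates, 48-hour exposure. TGI marks complete inhibition of growth.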
# Assays:
# Assay in all cases: NCI-60 cell line screen, 48 h
# [1] = system: UO-31 renal
# [2] = system: OVCAR-8 ovarian
# [3] = system: T-47D breast
# [4] = system: A549 NSCLC
# [5] = system: OVCAR-5 ovarian
# [6] = system: SK-MEL-28 melanoma
# [7] = system: NCI-H522 lung
# [8] = system: RXF 393 renal
# [9] = system: NCI-H460 lung
# [10] = system: SNB-75 CNS
# [11] = system: MDA-MB-231 breast
# [12] = system: TK-10 renal
smiles,measurement,setting,value
O=c1oc2c(Cl)cc(Cl)cc2cc1-c1cn2c(n1)sc1ccccc12,TGI,[1],> 100 µM
same,TGI,[2],> 100 µM
same,TGI,[3],> 100 µM
same,TGI,[4],> 100 µM
same,TGI,[5],> 100 µM
same,TGI,[6],> 100 µM
same,TGI,[7],88.8 µM
same,TGI,[8],> 100 µM
same,TGI,[9],> 100 µM
same,TGI,[10],> 100 µM
same,TGI,[11],> 100 µM
same,TGI,[12],> 100 µM
Clc1ccc(CCNCCNC2(c3cc4ccccc4s3)CCCCC2)cc1Cl,TGI,[1],3.46 µM
same,TGI,[2],3.54 µM
same,TGI,[3],4.07 µM
same,TGI,[4],3.81 µM
same,TGI,[5],3.64 µM
same,TGI,[6],3.24 µM
same,TGI,[7],3.37 µM
same,TGI,[8],4 µM
same,TGI,[9],3.16 µM
same,TGI,[10],3.72 µM
same,TGI,[11],3.24 µM
same,TGI,[12],3.07 µM
Cc1ccnc2[nH]c(-c3ccc(Cl)cc3)cc(=O)c12,TGI,[1],> 100 µM
same,TGI,[2],> 100 µM
same,TGI,[3],> 100 µM
same,TGI,[4],> 100 µM
same,TGI,[5],> 100 µM
same,TGI,[6],> 100 µM
same,TGI,[7],> 100 µM
same,TGI,[8],> 100 µM
same,TGI,[9],> 100 µM
same,TGI,[10],25.8 µM
same,TGI,[11],> 100 µM
same,TGI,[12],> 100 µM
CC(C)(C)c1ccc(OCCOc2ccc(C(C)(C)C)cc2NC=O)c(NC=O)c1,TGI,[1],30.9 µM
same,TGI,[2],59.4 µM
same,TGI,[3],> 86 µM
same,TGI,[4],> 100 µM
same,TGI,[5],75.5 µM
same,TGI,[6],32.6 µM
same,TGI,[7],24.4 µM
same,TGI,[8],28.2 µM
same,TGI,[9],34.3 µM
same,TGI,[10],> 78.7 µM
same,TGI,[11],40.5 µM
same,TGI,[12],> 100 µM
C=C1C(O)C2OC(=O)C(=C)C2C(OC(=O)/C(C)=C/C)CC2(C)OC2C2OC12 (stereo unspecified),TGI,[1],81.3 µM
same,TGI,[2],> 100 µM
same,TGI,[3],> 100 µM
same,TGI,[4],> 100 µM
same,TGI,[5],83.7 µM
same,TGI,[6],> 100 µM
same,TGI,[7],15.6 µM
same,TGI,[8],35.6 µM
same,TGI,[9],91.6 µM
same,TGI,[10],> 100 µM
same,TGI,[11],37.9 µM
same,TGI,[12],47.2 µM
CN1CN(c2ccccc2)C2(CCN(C(=O)OC(C)(C)C)CC2)C1=O,TGI,[1],> 100 µM
same,TGI,[2],> 100 µM
same,TGI,[3],> 100 µM
same,TGI,[4],> 100 µM
same,TGI,[5],> 100 µM
same,TGI,[6],> 100 µM
same,TGI,[7],> 100 µM
same,TGI,[8],> 100 µM
same,TGI,[9],> 100 µM
same,TGI,[10],> 100 µM
same,TGI,[11],> 100 µM
same,TGI,[12],> 100 µM
COc1c(C(=O)CC2c3c(cc4oc(C)cc(=O)c4c3OC)OC(=N)C2c2nc3ccccc3[nH]2)c(O)c(OC)c2occc12 (stereo unspecified),TGI,[1],> 100 µM
same,TGI,[2],> 100 µM
same,TGI,[3],> 100 µM
same,TGI,[4],> 100 µM
same,TGI,[5],> 100 µM
same,TGI,[6],> 100 µM
same,TGI,[7],> 100 µM
same,TGI,[8],> 100 µM
same,TGI,[9],> 100 µM
same,TGI,[10],> 100 µM
same,TGI,[11],> 100 µM
same,TGI,[12],> 100 µM
COc1cc(/C=[N+](\[O-])c2ccccc2Cl)ccc1OC(=S)S,TGI,[1],> 100 µM
same,TGI,[2],> 100 µM
same,TGI,[3],53.4 µM
same,TGI,[4],> 100 µM
same,TGI,[5],> 100 µM
same,TGI,[6],> 100 µM
same,TGI,[7],> 100 µM
same,TGI,[8],89.3 µM
same,TGI,[9],> 100 µM
same,TGI,[10],63.6 µM
same,TGI,[11],> 100 µM
same,TGI,[12],> 100 µM
C[C@]12CC[C@@H]3c4cc(C=O)c(OCc5ccccc5)cc4CC[C@H]3[C@@H]1CCC2OCc1ccccc1 (stereo partly specified),TGI,[1],> 100 µM
same,TGI,[2],> 100 µM
same,TGI,[3],> 100 µM
same,TGI,[4],> 100 µM
same,TGI,[5],> 100 µM
same,TGI,[6],> 100 µM
same,TGI,[7],> 100 µM
same,TGI,[8],> 100 µM
same,TGI,[9],> 100 µM
same,TGI,[10],> 100 µM
same,TGI,[11],> 100 µM
same,TGI,[12],> 100 µM
CCN1CCC(O)(/C=C/c2ccc(Cl)c(Cl)c2)C(C(=O)/C=C/c2ccc(Cl)c(Cl)c2)C1 (stereo unspecified),TGI,[1],2.3 µM
same,TGI,[2],1.87 µM
same,TGI,[3],2.36 µM
same,TGI,[4],1.72 µM
same,TGI,[5],2.52 µM
same,TGI,[6],7.97 µM
same,TGI,[7],2.33 µM
same,TGI,[8],2.71 µM
same,TGI,[9],2.02 µM
same,TGI,[10],2.37 µM
same,TGI,[11],1.6 µM
same,TGI,[12],2.81 µM
CCCCCCCCC/C=C1/CC(CO)(COC(=O)C2CCCCC2)OC1=O (stereo unspecified),TGI,[1],> 100 µM
same,TGI,[2],> 100 µM
same,TGI,[3],> 100 µM
same,TGI,[4],> 100 µM
same,TGI,[5],> 100 µM
same,TGI,[6],> 100 µM
same,TGI,[7],> 100 µM
same,TGI,[8],> 100 µM
same,TGI,[9],> 100 µM
same,TGI,[10],> 100 µM
same,TGI,[11],> 100 µM
same,TGI,[12],> 100 µM
O=S1(=O)OCCOS(=O)(=O)C1C1c2ccccc2-c2ccccc21,TGI,[1],93.2 µM
same,TGI,[2],> 100 µM
same,TGI,[3],> 100 µM
same,TGI,[4],> 100 µM
same,TGI,[5],> 100 µM
same,TGI,[6],> 100 µM
same,TGI,[7],64.5 µM
same,TGI,[8],> 100 µM
same,TGI,[9],33.7 µM
same,TGI,[10],31.9 µM
same,TGI,[11],> 100 µM
same,TGI,[12],> 100 µM
CC(NC(=O)C(NC(=O)C(NC(=O)C(F)(F)F)C(C)C)C(C)C)C(=O)Oc1c(Cl)c(Cl)c(Cl)c(Cl)c1Cl (stereo unspecified),TGI,[1],> 100 µM
same,TGI,[2],> 100 µM
same,TGI,[3],> 100 µM
same,TGI,[4],> 100 µM
same,TGI,[5],> 100 µM
same,TGI,[6],> 100 µM
same,TGI,[7],> 100 µM
same,TGI,[8],> 100 µM
same,TGI,[9],> 100 µM
same,TGI,[10],> 100 µM
same,TGI,[11],> 100 µM
same,TGI,[12],> 100 µM
